4 molecules from patent US6294526A, “Use of flavone derivatives for induction of β-lactam-sensitivity of MRSA” (priority 1998, dated 2001) can be followed below.

In one assay the test system is MRSA and MSSA. Briefly: antibacterial activity (MIC) by agar plate dilution method, MRSA and MSSA strains together. Format: cell-based, Staphylococcus aureus. To be noted: for antibacterial activity (in words): Table 2; for MIC: Staphylococcus aureus, 20 h, read-out: MIC values (text summary of Table 2). The method, then:
The screening of the present invention may be carried out according to the agar plate dilution method designated by the Japan Society of Chemotherapy (Chemotherapy 29(1), 76-79 (1981)). Mueller-Hinton agar base semi-synthetic medium may be used for a plate culture medium for a sensitivity test together with an inoculating bacteria solution which may be prepared by culturing bacteria to be tested at 37° C. for 20 hours diluted with 8.5% by isotonic sodium chloride solution to 10^6 CFU/ml. Diluted β-lactam solutions are prepared by two times serial dilution. 1 ml of the diluted β-lactam solution and 1 ml of a predetermined concentration of a sample to be tested are added to 8 ml of the plate culture medium for a sensitivity test. To the resultant plate culture medium for sensitivity test, the bacteria are inoculated using a microplanter (SAKUMASEISAKUSYO Co.), cultured for 20 hours at 37° C. followed by assessing for a minimum inhibition concentration (MIC). […]
Antibacterial activity is determined for flavones including flavone, flavonol, flavanone, isoflavone, catechin and calchone, as follows:
(§1) Flavones were dissolved in methanol and the others were dissolved in 0.1 N NaOH. A method for determination of antibacterial activity is, as described above, an agar plate dilution method designated by the Japan Society of Chemotherapy (Chemotherapy 29(1), 76-79 (1981)) to determine MIC value. MIC80 is a concentration at which a strain is prohibited to proliferate by 80% and MIC50 is a concentration at which a strain is prohibited to proliferate by 50%.

In the next assay the test system is MSSA. Kind of assay: antibacterial activity (MIC) by agar plate dilution method, MSSA strains. Format: cell-based, Methicillin-sensitive Staphylooccus aureus. To be noted: Staphylococcus aureus, 20 h. Here is the method: (§2) The screening of the present invention may be carried out according to the agar plate dilution method designated by the Japan Society of Chemotherapy (Chemotherapy 29(1), 76-79 (1981)). Mueller-Hinton agar base semi-synthetic medium may be used for a plate culture medium for a sensitivity test together with an inoculating bacteria solution which may be prepared by culturing bacteria to be tested at 37° C. for 20 hours diluted with 8.5% by isotonic sodium chloride solution to 10^6 CFU/ml. Diluted β-lactam solutions are prepared by two times serial dilution. 1 ml of the diluted β-lactam solution and 1 ml of a predetermined concentration of a sample to be tested are added to 8 ml of the plate culture medium for a sensitivity test. To the resultant plate culture medium for sensitivity test, the bacteria are inoculated using a microplanter (SAKUMASEISAKUSYO Co.), cultured for 20 hours at 37° C. followed by assessing for a minimum inhibition concentration (MIC).
(§3) (A) Antibacterial activities of ether extract from Scutellaria barbata, SB-1 (isolated from Scutellaria barbata), apigenin (authentic sample) and luteolin (authentic sample) were shown in Table 1.
as §1

Another assay relates to MRSA. Briefly: antibacterial activity (MIC) by agar plate dilution method, MRSA strains. Particulars: Staphylococcus aureus, 20 h. Type of assay: cell-based, methicillin-resistant Staphylococcus aureus. The method, then: as §2, §3, §1
[1] abbreviates: MSSA (7 strains), read-out: MIC50.
Where [2] appears, read: MRSA (20 strains), read-out: MIC50.

The structures appear in SMILES notation. Values after ≈ are worked out from the molar mass of the structure shown. Read-outs that look alike come from different tables or passages of the source. Bounds are passed on as bounds.

As usually defined, the MIC50 is the lowest concentration that inhibits either 50% of growth or 50% of the strains tested, depending on the study. The MIC is the least concentration at which growth counts as inhibited. In the case of `O=c1cc(-c2ccc(O)c(O)c2)oc2cc(O)cc(O)c12` [Luteolin, luteolin], the “antibacterial activity (in words)” value in the assay with MRSA and MSSA (MRSA and MSSA) was “showed antibacterial activity”. The MIC50 with MSSA (MSSA) and against MRSA (MRSA) was 125 µg/mL (≈ 437 µM) each time. The MIC is 62.5 to 125 µg/mL (≈ 218 to 437 µM) in the assay with MSSA (MSSA, MSSA (7 strains), range over strains); 125 µg/mL (≈ 437 µM) against MSSA (MSSA, MSSA strain No. 21); 125 µg/mL (≈ 437 µM) in the assay on MSSA (MSSA, MSSA strain No. 22); 62.5 µg/mL (≈ 218 µM) against MSSA (MSSA, MSSA strain No. 23); 62.5 µg/mL (≈ 218 µM) in the assay with MSSA (MSSA, MSSA strain No. 24); 125 µg/mL (≈ 437 µM) against MSSA (MSSA, MSSA strain No. 25). Further, the MIC against MSSA (MSSA, MSSA strain No. 26) is 125 µg/mL (≈ 437 µM); in the assay on MSSA (MSSA, MSSA strain No. 27) it was 62.5 µg/mL (≈ 218 µM); with MRSA (MRSA, MRSA (20 strains), range over strains) it was 62.5 to 125 µg/mL (≈ 218 to 437 µM); in the assay with MRSA (MRSA, MRSA strain No. 1), 125 µg/mL (≈ 437 µM); in the assay on MRSA (MRSA, MRSA strain No. 2), 125 µg/mL (≈ 437 µM); in the assay on MRSA (MRSA, MRSA strain No. 3), 125 µg/mL (≈ 437 µM). Besides, the MIC against MRSA (MRSA, MRSA strain No. 4) is 125 µg/mL (≈ 437 µM); against MRSA (MRSA, MRSA strain No. 5), 62.5 µg/mL (≈ 218 µM); in the assay with MRSA (MRSA, MRSA strain No. 6), 62.5 µg/mL (≈ 218 µM); in the assay on MRSA (MRSA, MRSA strain No. 7), 62.5 µg/mL (≈ 218 µM); with MRSA (MRSA, MRSA strain No. 8), 62.5 µg/mL (≈ 218 µM); in the assay with MRSA (MRSA, MRSA strain No. 9), 62.5 µg/mL (≈ 218 µM). The MIC against MRSA (MRSA, MRSA strain No. 10) is 62.5 µg/mL (≈ 218 µM); in the assay with MRSA (MRSA, MRSA strain No. 11), 125 µg/mL (≈ 437 µM); with MRSA (MRSA, MRSA strain No. 12), 125 µg/mL (≈ 437 µM); in the assay on MRSA (MRSA, MRSA strain No. 13), 62.5 µg/mL (≈ 218 µM); in the assay with MRSA (MRSA, MRSA strain No. 14), 125 µg/mL (≈ 437 µM); against MRSA (MRSA, MRSA strain No. 15), 125 µg/mL (≈ 437 µM). Besides, the MIC against MRSA (MRSA, MRSA strain No. 16) came to 125 µg/mL (≈ 437 µM); in the assay on MRSA (MRSA, MRSA strain No. 17), 125 µg/mL (≈ 437 µM); in the assay with MRSA (MRSA, MRSA strain No. 18) it was 125 µg/mL (≈ 437 µM); against MRSA (MRSA, MRSA strain No. 19), 125 µg/mL (≈ 437 µM); with MRSA (MRSA, MRSA strain No. 20), 62.5 µg/mL (≈ 218 µM).

Regarding `O=C(CCc1ccc(O)cc1)c1c(O)cc(O)cc1O` [Phloretin, phloretin], the “antibacterial activity (in words)” value in the assay with MRSA and MSSA (MRSA and MSSA) is on record as “showed activity”; with MRSA and MSSA (MRSA and MSSA, listed as phioretin) it was “showed antibacterial activity”. The MIC in the assay with MRSA and MSSA (MRSA and MSSA, "in each case") was 250 µg/mL (≈ 912 µM); with MSSA (MSSA, MSSA (7 strains), range over strains, read-out: MIC), 125 to 250 µg/mL (≈ 456 to 912 µM). Further, the figures for the MIC50 in the assay on MSSA (setting [1]) and with MRSA (setting [2]) were 125 µg/mL (≈ 456 µM) and 250 µg/mL (≈ 912 µM), respectively.

Take `O=c1c(O)c(-c2ccc(O)c(O)c2)oc2cc(O)cc(O)c12` [Quercetin, quercetin]: the “antibacterial activity (in words)” value with MRSA and MSSA (MRSA and MSSA) is recorded as “showed antibacterial activity”. For the same molecule, the MIC in the assay with MRSA and MSSA is 250 µg/mL (≈ 827 µM). The MIC50 with MSSA (setting [1]) and with MRSA (MRSA) was 250 µg/mL (≈ 827 µM) throughout.

With `COc1cc(O)c2c(c1)OC(c1ccc(O)cc1)CC2=O` (stereo not shown) [Sakranetin, sakranetin], the “antibacterial activity (in words)” value with MRSA and MSSA (MRSA and MSSA) was “showed antibacterial activity”. Also, the MIC with MRSA and MSSA (MRSA and MSSA, "in each case") is 250 µg/mL (≈ 873 µM). The MIC50 was greater than 250 µg/mL in the assay with MSSA (setting [1]) and 125 µg/mL (≈ 437 µM) in the assay with MRSA (setting [2]).
